Measured values as given in the supplement of paper PMC11061612.

Assays:
Assay in all cases: combination Emax (second highest fraction inhibited in the dose matrix, 72 h); higher = more inhibition; extreme values may be limits of the assay
[1] = tested on: RMG-I (Ovarian Carcinoma)
Outline: (§1)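 Cell lines grown in DMEM/F12 or RPMI with 10% FBS were plated in 1536-well plates and held 24 hours at 37°C, 5% CO2 before 72 hours of exposure to two-drug dose matrices, with DMSO typically at 0.2%. CellTiter-Glo 2.0 luminescence gave viability, which was converted to inhibition. Vehicle wells were set to 0 and blank wells to 1. Combination Emax is the second-highest inhibition in the matrix, and Bliss excess is the observed combination effect minus the expected EA + EB − EA·EB, where EA and EB are the single-agent effects.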

[2] = tested on: NCI-H1155 (Non-Small Cell Lung Carcinoma)
Outline: as §1

[3] = tested on: Calu-6 (Non-Small Cell Lung Carcinoma)
Outline: as §1

ES-2 (Ovarian Carcinoma) = tested on: ES-2 (Ovarian Carcinoma)
Outline: as §1

[4] = tested on: NCI-H810 (Non-Small Cell Lung Carcinoma)
Outline: as §1

KYM-1 (Rhabdomyosarcoma) = tested on: KYM-1 (Rhabdomyosarcoma)
Outline: as §1

[5] = tested on: PC-14 (Lung Adenocarcinoma)
Outline: as §1

[6] = tested on: HSC-3 (Oral Cavity Carcinoma)
Outline: as §1

HuO-3N1 (Osteosarcoma) = tested on: HuO-3N1 (Osteosarcoma)
Outline: as §1

[7] = tested on: AN3-CA (Endometrial Carcinoma)
Outline: as §1

[8] = tested on: JHH-1 (Hepatocellular Carcinoma)
Outline: as §1

[9] = tested on: SJRH30 (Rhabdomyosarcoma)
Outline: as §1

[10] = tested on: NCI-H196 (Small Cell Lung Carcinoma)
Outline: as §1

[11] = tested on: KYSE-70 (Esophageal Squamous Cell Carcinoma)
Outline: as §1

[12] = tested on: CML-T1 (Chronic Myelogenous Leukemia)
Outline: as §1

[13] = tested on: LAMA-84 (Chronic Myelogenous Leukemia)
Outline: as §1

RT4 (Bladder Carcinoma) = tested on: RT4 (Bladder Carcinoma)
Outline: as §1

[14] = tested on: OV-90 (Ovarian Carcinoma)
Outline: as §1

[15] = tested on: SK-MM-2 (Plasma Cell Myeloma)
Outline: as §1

[16] = tested on: Becker (Low Grade Glioma)
Outline: as §1

Compound: Cc1c2c(nn1C)CSCc1cc(n(C)n1)CSc1cc(c3ccccc3c1)OCCCc1c(C(=O)O)n(C)c3c-2c(Cl)ccc13 [AZD5991] + Cc1cc2ncnn2cc1Nc1ncc2c(n1)n(C1CCOCC1)c(=O)n2C [AZD7648] (first compound max 1 µM, 7x7, partner max 10 µM)
- combination Emax [1]: 0.344
- combination Emax [2]: 0.257
- combination Emax [3]: 0.29
- combination Emax (ES-2 (Ovarian Carcinoma)): 0.313
- combination Emax [4]: 0.514
- combination Emax (KYM-1 (Rhabdomyosarcoma)): 0.265
- combination Emax [5]: 0.27
- combination Emax [6]: 0.52
- combination Emax (HuO-3N1 (Osteosarcoma)): 0.85
- combination Emax [7]: 0.654
- combination Emax [8]: 0.35
- combination Emax [9]: 0.478
- combination Emax [10]: 0.219
- combination Emax [11]: 0.159
- combination Emax [12]: 0.332
- combination Emax [13]: 0.22
- combination Emax (RT4 (Bladder Carcinoma)): 0.358
- combination Emax [14]: 0.257
- combination Emax [15]: 0.375
- combination Emax [16]: 0.177

Compound: C[C@@H]1COCCN1c1cc(C2([S@](C)(=N)=O)CC2)nc(-c2ccnc3[nH]ccc23)n1 [AZD6738] + O=C(c1cc(Cc2n[nH]c(=O)c3ccccc23)ccc1F)N1CCN(C(=O)C2CC2)CC1 [Olaparib] (first compound max 10 µM, 7x7, partner max 10 µM)
- combination Emax [1]: 0.414
- combination Emax [2]: 0.825
- combination Emax [3]: 0.684
- combination Emax (ES-2 (Ovarian Carcinoma)): 0.662
- combination Emax [4]: 0.766
- combination Emax (KYM-1 (Rhabdomyosarcoma)): 0.792
- combination Emax [5]: 0.816
- combination Emax [6]: 0.404
- combination Emax (HuO-3N1 (Osteosarcoma)): 0.339
- combination Emax [7]: 0.577
- combination Emax [8]: 0.458
- combination Emax [9]: 0.619
- combination Emax [10]: 0.347
- combination Emax [11]: 0.45
- combination Emax [12]: 0.966
- combination Emax [13]: 0.961
- combination Emax (RT4 (Bladder Carcinoma)): 0.443
- combination Emax [14]: 0.537
- combination Emax [15]: 0.572
- combination Emax [16]: 0.601

Compound: Cc1cc2ncnn2cc1Nc1ncc2c(n1)n(C1CCOCC1)c(=O)n2C [AZD7648] + C=CCn1c(=O)c2cnc(Nc3ccc(N4CCN(C)CC4)cc3)nc2n1-c1cccc(C(C)(C)O)n1 [AZD1775] (first compound max 10 µM, partner max 1 µM)
- combination Emax [1]: 0.471
- combination Emax [2]: 0.485
- combination Emax [3]: 0.779
- combination Emax (ES-2 (Ovarian Carcinoma)): 0.661
- combination Emax [4]: 0.881
- combination Emax (KYM-1 (Rhabdomyosarcoma)): 0.33
- combination Emax [5]: 0.86
- combination Emax [6]: 0.311
- combination Emax (HuO-3N1 (Osteosarcoma)): 0.417
- combination Emax [7]: 0.465
- combination Emax [8]: 0.433
- combination Emax [9]: 0.833
- combination Emax [10]: 0.479
- combination Emax [11]: 0.566
- combination Emax [12]: 0.941
- combination Emax [13]: 0.953
- combination Emax (RT4 (Bladder Carcinoma)): 0.446
- combination Emax [14]: 0.409
- combination Emax [15]: 0.573
- combination Emax [16]: 0.311

Compound: Cc1cc2ncnn2cc1Nc1ncc2c(n1)n(C1CCOCC1)c(=O)n2C [AZD7648] + CCN(CCO)CCCOc1ccc2c(Nc3cc(CC(=O)Nc4cccc(F)c4)[nH]n3)ncnc2c1 [AZD2811] (first compound max 10 µM, 7x7, partner max 1 µM)
- combination Emax [1]: 0.466
- combination Emax [2]: 0.475
- combination Emax [3]: 0.317
- combination Emax (ES-2 (Ovarian Carcinoma)): 0.288
- combination Emax [4]: 0.643
- combination Emax (KYM-1 (Rhabdomyosarcoma)): 0.182
- combination Emax [5]: 0.312
- combination Emax [6]: 0.455
- combination Emax (HuO-3N1 (Osteosarcoma)): 0.35
- combination Emax [7]: 0.354
- combination Emax [8]: 0.113
- combination Emax [9]: 0.24
- combination Emax [10]: 0.185
- combination Emax [11]: 0.238
- combination Emax [12]: 0.49
- combination Emax [13]: 0.336
- combination Emax (RT4 (Bladder Carcinoma)): 0.491
- combination Emax [14]: 0.323
- combination Emax [15]: 0.313
- combination Emax [16]: 0.214

Compound: Cc1cc2ncnn2cc1Nc1ncc2c(n1)n(C1CCOCC1)c(=O)n2C [AZD7648] + CN(C)CCCOc1ccc(-c2ccc3ncc4c(c3c2)n(C2CCOCC2)c(=O)n4C)cn1 [AZD0156] (first compound max 10 µM, 7x7, partner max 1 µM)
- combination Emax [1]: 0.431
- combination Emax [2]: 0.319
- combination Emax [3]: 0.381
- combination Emax (ES-2 (Ovarian Carcinoma)): 0.295
- combination Emax [4]: 0.287
- combination Emax (KYM-1 (Rhabdomyosarcoma)): 0.165
- combination Emax [5]: 0.28
- combination Emax [6]: 0.174
- combination Emax (HuO-3N1 (Osteosarcoma)): 0.369
- combination Emax [7]: 0.321
- combination Emax [8]: 0.207
- combination Emax [9]: 0.165
- combination Emax [10]: 0.203
- combination Emax [11]: 0.211
- combination Emax [12]: 0.388
- combination Emax [13]: 0.202
- combination Emax (RT4 (Bladder Carcinoma)): 0.42
- combination Emax [14]: 0.216
- combination Emax [15]: 0.205
- combination Emax [16]: 0.184

Compound: Cc1cc2ncnn2cc1Nc1ncc2c(n1)n(C1CCOCC1)c(=O)n2C [AZD7648] + C[C@@H]1COCCN1C2=NC(=NC(=C2)C3(CC3)[S@](=N)(=O)C)C4=C5C=CNC5=NC=C4 [AZD6738] (first compound max 10 µM, 7x7, partner max 10 µM)
- combination Emax [1]: 0.53
- combination Emax [2]: 0.746
- combination Emax [3]: 0.741
- combination Emax (ES-2 (Ovarian Carcinoma)): 0.743
- combination Emax [4]: 0.697
- combination Emax (KYM-1 (Rhabdomyosarcoma)): 0.697
- combination Emax [5]: 0.805
- combination Emax [6]: 0.405
- combination Emax (HuO-3N1 (Osteosarcoma)): 0.331
- combination Emax [7]: 0.435
- combination Emax [8]: 0.476
- combination Emax [9]: 0.801
- combination Emax [10]: 0.365
- combination Emax [11]: 0.414
- combination Emax [12]: 0.936
- combination Emax [13]: 0.947
- combination Emax (RT4 (Bladder Carcinoma)): 0.488
- combination Emax [14]: 0.489
- combination Emax [15]: 0.475
- combination Emax [16]: 0.607

Compound: Cc1cc2ncnn2cc1Nc1ncc2c(n1)n(C1CCOCC1)c(=O)n2C [AZD7648] + O=C(c1cc(Cc2n[nH]c(=O)c3ccccc23)ccc1F)N1CCN(C(=O)C2CC2)CC1 [Olaparib] (first compound max 10 µM, 7x7, partner max 10 µM)
- combination Emax [1]: 0.192
- combination Emax [2]: 0.293
- combination Emax [3]: 0.355
- combination Emax (ES-2 (Ovarian Carcinoma)): 0.283
- combination Emax [4]: 0.193
- combination Emax (KYM-1 (Rhabdomyosarcoma)): 0.274
- combination Emax [5]: 0.241
- combination Emax [6]: 0.15
- combination Emax (HuO-3N1 (Osteosarcoma)): 0.233
- combination Emax [7]: 0.304
- combination Emax [8]: 0.105
- combination Emax [9]: 0.0648
- combination Emax [10]: 0.129
- combination Emax [11]: 0.124
- combination Emax [12]: 0.71
- combination Emax [13]: 0.17
- combination Emax (RT4 (Bladder Carcinoma)): 0.28
- combination Emax [14]: 0.238
- combination Emax [15]: 0.156
- combination Emax [16]: 0.12
